Data: patent US20150060744A1, “[…] BLUE DYE COMPOUND, BLUE RESIN COMPOSITION FOR COLOR FILTER CONTAINING SAME AND COLOR FILTER USING SAME” (KYUNG SYNTHETIC CO., LTD., priority 2012, published 2015)

Assay: Solubility of blue dye compounds in PGMEA and cyclohexanone
Type: physicochemical
Settings: for Solubility in PGMEA: solvent PGMEA (propylene glycol monomethyl ether acetate); for Solubility in cyclohexanone: solvent cyclohexanone

Question: With `C=C(C)C(=O)OCCN(CC)c1ccc(C(=C2C=CC(=[N+](CC)CCOC(=O)C(=C)C)C=C2)c2ccc(Nc3ccccc3)c3ccccc23)cc1` [Comp. Ex. 1] as the compound, how does the “Solubility in PGMEA” value read?
Answer: <1%

Question: What about the Solubility in cyclohexanone of the same compound?
Answer: <3%

Question: What does the source list for `C=C(C)C(=O)OCCN(CC)c1ccc(C(=C2C=CC(=[N+](CC)CCOC(=O)C(=C)C)C=C2)c2ccc(Nc3ccccc3)c3ccccc23)cc1` [Syn. Ex. 1]?
Answer: Solubility in PGMEA: >10%; Solubility in cyclohexanone: >10%

Question: For `CN(C)c1ccc(C(=C2C=CC(=[N+](C)C)C=C2)c2ccc(Nc3ccccc3)c3ccccc23)cc1` [compound 2], which “Solubility in PGMEA” value is on record?
Answer: <1%

Question: And the Solubility in cyclohexanone?
Answer: <3%
